In ChEMBL document CHEMBL1146909, “A novel class of positive allosteric modulators of AMPA receptors: design, synthesis, and structure-activity relationships of 3-biphenyl-4-yl-4-cyano-5-ethyl-1-methyl-1H-pyrrole-2-carboxylic acid, LY2059346” (Bioorg Med Chem Lett, 2006):

Experiments:
Assay type in all cases: functional, cell-based
Glutamate receptor 4 [1] = biological target: T1, Glutamate receptor 4 (Homo sapiens, UniProt P48058); experiment: Activity at human recombinant iGluR4 flop expressed in HEK293 cells measured as change in intracellular calcium ion concentration in presence of glutamate by FLIPR assay
T1 sequence (P48058 whole entry): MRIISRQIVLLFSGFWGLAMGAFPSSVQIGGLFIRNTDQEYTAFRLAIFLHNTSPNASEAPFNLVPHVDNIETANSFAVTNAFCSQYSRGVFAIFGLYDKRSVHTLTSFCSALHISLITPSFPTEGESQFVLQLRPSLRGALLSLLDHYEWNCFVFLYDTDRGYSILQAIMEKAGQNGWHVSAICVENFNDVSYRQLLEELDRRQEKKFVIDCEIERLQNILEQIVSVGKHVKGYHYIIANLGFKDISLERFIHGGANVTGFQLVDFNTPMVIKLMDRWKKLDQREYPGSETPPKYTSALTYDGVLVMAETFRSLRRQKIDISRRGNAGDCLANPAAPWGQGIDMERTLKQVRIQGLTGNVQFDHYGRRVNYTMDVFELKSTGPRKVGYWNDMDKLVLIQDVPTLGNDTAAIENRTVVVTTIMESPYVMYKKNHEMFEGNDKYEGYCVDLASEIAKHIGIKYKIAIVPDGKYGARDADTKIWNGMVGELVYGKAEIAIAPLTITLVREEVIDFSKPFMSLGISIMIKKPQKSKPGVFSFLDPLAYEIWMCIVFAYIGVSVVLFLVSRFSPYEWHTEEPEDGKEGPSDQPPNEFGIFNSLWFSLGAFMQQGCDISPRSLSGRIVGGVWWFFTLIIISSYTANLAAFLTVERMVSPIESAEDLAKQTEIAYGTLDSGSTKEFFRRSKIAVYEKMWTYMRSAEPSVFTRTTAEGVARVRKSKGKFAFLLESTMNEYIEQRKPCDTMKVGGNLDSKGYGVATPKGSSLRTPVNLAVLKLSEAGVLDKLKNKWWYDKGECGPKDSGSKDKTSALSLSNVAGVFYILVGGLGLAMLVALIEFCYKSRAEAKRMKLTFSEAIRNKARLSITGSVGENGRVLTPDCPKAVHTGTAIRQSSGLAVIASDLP

Glutamate receptor 2 [2] = biological target: T2, Glutamate receptor 2 (Homo sapiens, UniProt P42262); experiment: Activity at human recombinant iGluR2 flop expressed in HEK293 cells measured as change in intracellular calcium ion concentration in presence of glutamate by FLIPR assay
T2 sequence (P42262 whole entry): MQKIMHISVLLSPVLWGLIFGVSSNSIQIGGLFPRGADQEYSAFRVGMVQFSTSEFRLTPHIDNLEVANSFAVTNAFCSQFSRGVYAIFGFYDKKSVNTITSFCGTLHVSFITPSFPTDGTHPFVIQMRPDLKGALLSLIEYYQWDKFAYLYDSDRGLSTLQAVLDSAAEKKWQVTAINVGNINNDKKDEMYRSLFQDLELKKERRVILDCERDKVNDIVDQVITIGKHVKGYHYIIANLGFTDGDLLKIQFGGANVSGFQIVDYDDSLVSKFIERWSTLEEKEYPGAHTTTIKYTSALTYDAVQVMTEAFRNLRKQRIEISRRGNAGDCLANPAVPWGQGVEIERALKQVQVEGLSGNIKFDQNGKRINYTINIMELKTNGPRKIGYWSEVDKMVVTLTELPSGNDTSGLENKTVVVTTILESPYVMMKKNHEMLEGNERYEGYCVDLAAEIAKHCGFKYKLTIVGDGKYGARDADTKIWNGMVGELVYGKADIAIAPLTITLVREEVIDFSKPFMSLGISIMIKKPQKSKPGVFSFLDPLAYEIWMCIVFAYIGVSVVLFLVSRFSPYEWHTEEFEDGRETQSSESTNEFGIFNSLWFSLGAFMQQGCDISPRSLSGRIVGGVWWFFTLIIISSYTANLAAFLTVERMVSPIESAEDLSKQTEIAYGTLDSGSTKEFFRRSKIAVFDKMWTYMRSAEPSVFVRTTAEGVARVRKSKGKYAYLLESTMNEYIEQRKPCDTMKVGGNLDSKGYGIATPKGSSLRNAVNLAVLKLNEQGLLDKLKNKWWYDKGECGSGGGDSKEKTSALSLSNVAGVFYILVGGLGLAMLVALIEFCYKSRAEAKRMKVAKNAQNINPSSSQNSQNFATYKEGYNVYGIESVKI

Glutamate receptor 4 [3] = biological target: T1, Glutamate receptor 4; experiment: Activity at human recombinant iGluR4 flip expressed in HEK293 cells measured as change in intracellular calcium ion concentration in presence of glutamate by FLIPR assay
Glutamate receptor 2 [4] = biological target: T2, Glutamate receptor 2; experiment: Activity at human recombinant iGluR2 flip expressed in HEK293 cells measured as change in intracellular calcium ion concentration in presence of glutamate by FLIPR assay

Row | Structure (SMILES) | EC50 (Glutamate receptor 4 [1]) | EC50 (Glutamate receptor 2 [2]) | EC50 (Glutamate receptor 4 [3]) | EC50 (Glutamate receptor 2 [4])
1 | CSc1c(C#N)c(-c2ccc(-c3ccccc3)cc2)c(C(=O)O)n1C | 1.3 µM | 0.473 µM | 0.394 µM | 0.174 µM
2 | Cn1c(Br)c(C#N)c(-c2ccc(-c3ccccc3)cc2)c1C(=O)O | 1.69 µM | > 3 µM | 0.679 µM | > 3 µM
3 | CCc1c(C#N)c(-c2ccc(-c3cccc(OC)c3)cc2)c(C(=O)O)n1C | > 3 µM | 0.924 µM | 1.05 µM | 0.391 µM
4 | CCc1c(C#N)c(-c2ccc(-c3ccccc3)cc2)c(C(=O)O)n1C | 1.77 µM | 0.398 µM | 0.213 µM | 0.103 µM
5 | CCc1c(C#N)c(-c2ccc(-c3ccccc3F)cc2)c(C(=O)O)n1C | 0.185 µM | 0.143 µM | 0.08 µM | 0.111 µM
6 | CCSc1c(C#N)c(-c2ccc(-c3ccccc3)cc2)c(C(=O)O)n1C | – | – | 0.619 µM | –
7 | CSc1sc(C(=O)O)c(-c2ccc(C(C)(C)C)cc2)c1C#N | 1.56 µM | 0.309 µM | 0.214 µM | 0.097 µM
8 | CCc1c(C#N)c(-c2ccc(-c3ccccc3SC)cc2)c(C(=O)O)n1C | 0.077 µM | 0.032 µM | 0.105 µM | 0.057 µM
9 | CCc1c(C#N)c(-c2ccc(-c3ccccc3C#N)cc2)c(C(=O)O)n1C | 0.053 µM | 0.073 µM | 0.056 µM | 0.082 µM
10 | CCOc1ccccc1-c1ccc(-c2c(C#N)c(CC)n(C)c2C(=O)O)cc1 | 0.146 µM | 0.036 µM | 0.158 µM | 0.083 µM
11 | CCc1c(C#N)c(-c2ccc(-c3ccccc3OC)cc2)c(C(=O)O)n1C | 0.386 µM | 0.902 µM | 0.673 µM | 0.28 µM
12 | CCc1c(C#N)c(-c2ccc(-c3ccccc3Cl)cc2)c(C(=O)O)n1C | 0.157 µM | 0.055 µM | 0.225 µM | 0.042 µM
13 | CCc1c(C#N)c(-c2ccc(-c3cccc(C)c3)cc2)c(C(=O)O)n1C | > 3 µM | 2.13 µM | 2.08 µM | 0.965 µM
14 | CC(C)Sc1c(C#N)c(-c2ccc(-c3ccccc3)cc2)c(C(=O)O)n1C | > 3 µM | > 3 µM | > 3 µM | > 3 µM
15 | Cn1cc(C#N)c(-c2ccc(-c3ccccc3)cc2)c1C(=O)O | > 3 µM | > 3 µM | > 3 µM | > 3 µM
16 | CCc1c(C#N)c(-c2ccc(-c3ccc(C)cc3)cc2)c(C(=O)O)n1C | > 3 µM | 1.65 µM | 1.14 µM | 0.412 µM
17 | CCc1c(C#N)c(-c2ccc(-c3ccccc3C)cc2)c(C(=O)O)n1C | 1.18 µM | 0.99 µM | 0.79 µM | 0.27 µM
18 | CCc1c(C#N)c(-c2ccc(-c3ccc(OC)cc3)cc2)c(C(=O)O)n1C | > 3 µM | 0.37 µM | 0.738 µM | 0.423 µM
19 | CCc1c(C#N)c(-c2ccc(-c3ccc(C#N)cc3)cc2)c(C(=O)O)n1C | > 3 µM | 0.37 µM | 0.373 µM | 0.423 µM
20 | CCc1c(C#N)c(-c2ccc(-c3ccc(F)cc3)cc2)c(C(=O)O)n1C | 2.95 µM | 1.03 µM | 0.242 µM | 0.345 µM
21 | CCc1c(C#N)c(-c2ccc(-c3ccc(Cl)cc3)cc2)c(C(=O)O)n1C | > 3 µM | 0.984 µM | 0.91 µM | 0.142 µM
22 | CCc1c(C#N)c(-c2ccc(-c3cccc(F)c3)cc2)c(C(=O)O)n1C | > 3 µM | 1.49 µM | 0.223 µM | 0.426 µM
23 | Cc1c(C#N)c(-c2ccc(-c3ccccc3)cc2)c(C(=O)O)n1C | 2.39 µM | 0.391 µM | 0.532 µM | 0.308 µM
24 | CCc1c(C#N)c(-c2ccc(-c3cccc(Cl)c3)cc2)c(C(=O)O)n1C | > 3 µM | 0.9 µM | 1.08 µM | 0.186 µM
25 | CCc1c(C#N)c(-c2ccc(-c3cccc(C#N)c3)cc2)c(C(=O)O)n1C | > 3 µM | 0.974 µM | 0.631 µM | 0.395 µM
